Measurements from US20220332763A1, “FUSED POLYPEPTIDE AND USE THEREOF” (NANJING ANJI BIOLOGICAL TECHNOLOGY CO., LTD., priority 2019, published 2022).
Where no end group is shown, it is not given here.

Experiments:
[1] = system: SD rats with bleomycin-induced pulmonary fibrosis; assay: Bleomycin-induced pulmonary fibrosis animal model; format: in vivo; details: for Survival rate (%): dosage 10 mg/kg in Table 2, administration 14 days, model group 50
Method: SD rats were anesthetized by intraperitoneal injection of 1 mL/100 g 4% chloral hydrate. After anesthesia, the rats were fixed and their necks were disinfected by using cotton with 75% alcohol. The skin of the rat neck was longitudinally cut with scissors, and the fascia and muscle were longitudinally bluntly torn with tweezers to expose the trachea. A syringe was inserted into the trachea to inject 5 mg/kg bleomycin, while a blank group was injected with an equal amount of normal saline. Then a rat plate was quickly erected and rotated, the rats' breathing was observed, the neck wound was sterilized after rotation and was sewn, and an amoxicillin anti-inflammatory drug was sprinkled on the suture. After the operation, the rats were put back into a dry and clean cage for resting, waiting was performed for awakening. The rats were awakened after about 1-2 hours, and then fed normally. On the 7th day after modeling, modeling group animals randomly fell into a model group, a Nintedanib positive drug group, polypeptide I, II, III, IV, V, VI dosage groups, and a normal control group, and the groups were administered separately for an administration cycle of 14 days. Living situations of rats were observed every day and their weights were weighed. After administration for 14 days, the SD rats were dissected, the lung tissue was taken, and the right lung tissue was placed in a tissue fixative only for fixation, and HE staining and Masson staining and slice analysis were performed.

[2] = system: LX-2 hepatic stellate cells; assay: In vitro hepatic fibrosis model, MTT assay; format: cell-based; details: 1 μmol/L; for Inhibition of proliferation (in words): 24 hours and 48 hours, Example 2; for Optical density value, 12 h / Optical density value, 24 h / Optical density value, 48 h: LX-2 cells, MTT, OD at 570 nm; for Optical density value, 12 h: blank group 0.456 ± 0.012; for Optical density value, 24 h: blank group 0.548 ± 0.01; for Optical density value, 48 h: blank group 0.812 ± 0.016
Method: (§1) The inhibitory effect of a polypeptide on LX-2 hepatic stellate cells was detected by MTT assay. Cells were cultured in a 1640 medium containing 10% of FBS, the […] was made into 4×10^5/mL cell suspension, and 100 μL per well was inoculated into a 96-well plate. After the cells adhered to the wall, the medium was replaced with a serum-free 1640 medium, and the serum-free medium was discarded after 24 hours. The cells were cultured with different polypeptides of 1 μmol/L, and 5 multiple wells were set for each concentration. After 12, 24 and 48 hours separately, 10 μL of MTT was added to each well. After 4 hours, MTT was sucked out, and 150 μL of DMSO was added to each well. After reaction for 5 min, an OD value was measured at 570 nm by a microplate reader.

[3] = system: TGF-β1; assay: Renal fibrosis animal model (ureter ligation), TGF-β1 in serum; format: in vivo; details: SD rats with renal fibrosis; 7.5 mg/kg subcutaneous twice a day, 14 days; FIG. 3
Method: A renal fibrosis animal model was established. SD rats were anesthetized with 4% chloral hydrate, injected with 1 mL/100 g intraperitoneally, fixed to an operation board, and sterilized in an operation area for later use. […] Muscular layers and abdominal walls were sewed layer by layer, the suture was disinfected with alcohol. After SD rats woke up, the rats were put into a cage for feeding. In the blank group, ureter was not ligated, and other steps were the same.
Then, the animals fell into a blank group, a model group, and polypeptide administration groups, with 10 animals in each group, and the administration was started on the second day after the operation, twice a day for 14 days. After administration for 14 days, blood was taken and supernatant was taken to detect the content of TGF-β1 in serum.

[4] = system: cardiac fibroblasts of rats; assay: Myocardial fibrosis model, MTT assay; format: cell-based; details: 1 μmol/L; for Inhibition of proliferation of cardiac fibroblasts of rats (in words): 24 hours and 48 hours; for Optical density value, 12 h / Optical density value, 24 h / Optical density value, 48 h: cardiac fibroblasts of rats, MTT, OD at 570 nm; for Optical density value, 12 h: blank group 0.353 ± 0.001; for Optical density value, 24 h: blank group 0.464 ± 0.018; for Optical density value, 48 h: blank group 0.896 ± 0.001
Method: as §1, with “cardiac fibroblasts of rats” for “LX-2 hepatic stellate cells”, “DMEM” for “1640”, “1×10^5/mL” for “4×10^5/mL”

[5] = system: HYP; assay: Bleomycin skin fibrosis model, HYP content in skin tissue; format: in vivo, C57/BL black mice; details: bleomycin skin fibrosis mice; 10 mg/kg subcutaneous twice a day, 28 days; FIG. 4
Method: Bleomycin (10 μg/mL) was injected subcutaneously every day for 28 days to form skin fibrosis. During the modeling period, the administration groups were given polypeptide drugs twice a day for treatment. After modeling, the mice were killed on the next day, and the skin tissue of the mouse back was taken to detect the content of HYP in the skin tissue.

Compound | Survival rate (%) [1] | Inhibition of proliferation (in words) [2] | Optical density value, 12 h [2] | Optical density value, 24 h [2] | Optical density value, 48 h [2] | Content of TGF-β1 in serum versus model group [3] | Inhibition of proliferation of cardiac fibroblasts of rats (in words) [4] | Optical density value, 12 h [4] | Optical density value, 24 h [4] | Optical density value, 48 h [4] | Expression of HYP content in tissue versus model group [5] | Survival rate compared with model group / positive drug group ([1]; in words)
LSKLGGGGSDKPGGGGTSLDASIIWAMMQN [Polypeptide V, Leu-Ser-Lys-Leu-linker-Ser-Asp-Lys-Pro-linker-Thr-Ser-Leu-Asp-Ala-Ser-Ile-Ile-Trp-Ala-Met-Met-Gln-Asn] | 70% | could inhibit the proliferation | 0.462 ± 0.004 | 0.477 ± 0.015 | 0.618 ± 0.015 | highly significantly different from the model group (**P<0.01) | could inhibit the proliferation | 0.357 ± 0.024 | 0.397 ± 0.015 | 0.588 ± 0.019 | highly significantly different from the model group (*P<0.05) | 
COC(=O)c1ccc2c(c1)NC(=O)/C2=C(\Nc1ccc(N(C)C(=O)CN2CCN(C)CC2)cc1)c1ccccc1 [Positive drug group, Nintedanib, reference compound] | 90% |  |  |  |  |  |  |  |  |  |  | 
TSLDASIIWAMMQNGGGGLSKLGGGGSDKP [Polypeptide IV, Thr-Ser-Leu-Asp-Ala-Ser-Ile-Ile-Trp-Ala-Met-Met-Gln-Asn-linker-Leu-Ser-Lys-Leu-linker-Ser-Asp-Lys-Pro] | 80% | could inhibit the proliferation | 0.478 ± 0.018 | 0.472 ± 0.03 | 0.580 ± 0.012 | highly significantly different from the model group (***P<0.001) | could inhibit the proliferation | 0.362 ± 0.015 | 0.392 ± 0.008 | 0.583 ± 0.012 | highly significantly different from the model group (***P<0.001) | 
TSLDASIIWAMMQNGGGGSDKPGGGGLSKL [Polypeptide III, Thr-Ser-Leu-Asp-Ala-Ser-Ile-Ile-Trp-Ala-Met-Met-Gln-Asn-linker-Ser-Asp-Lys-Pro-linker-Leu-Ser-Lys-Leu] | 80% | could inhibit the proliferation | 0.455 ± 0.002 | 0.435 ± 0.013 | 0.642 ± 0.018 | highly significantly different from the model group (**P<0.01) | could inhibit the proliferation | 0.349 ± 0.012 | 0.413 ± 0.003 | 0.612 ± 0.018 | highly significantly different from the model group (*P<0.05) | 
Ac-SDKPGGGGLSKLGGGGTSLDASIIWAMMQN (N-terminus assumed) [Polypeptide I, Ser-Asp-Lys-Pro-linker-Leu-Ser-Lys-Leu-linker-Thr-Ser-Leu-Asp-Ala-Ser-Ile-Ile-Trp-Ala-Met-Met-Gln-Asn] | 90% | could inhibit the proliferation | 0.452 ± 0.008 | 0.542 ± 0.03 | 0.680 ± 0.014 | highly significantly different from the model group (***P<0.001) | could inhibit the proliferation | 0.362 ± 0.006 | 0.402 ± 0.002 | 0.678 ± 0.002 | highly significantly different from the model group (*P<0.05) | equivalent to that of the positive drug group
Ac-SDKPGGGGTSLDASIIWAMMQNGGGGLSKL (N-terminus assumed) [Polypeptide II, Ser-Asp-Lys-Pro-linker-Thr-Ser-Leu-Asp-Ala-Ser-Ile-Ile-Trp-Ala-Met-Met-Gln-Asn-linker-Leu-Ser-Lys-Leu] | 80% | could inhibit the proliferation | 0.463 ± 0.012 | 0.394 ± 0.005 | 0.578 ± 0.005 | highly significantly different from the model group (***P<0.001) | could inhibit the proliferation | 0.352 ± 0.004 | 0.367 ± 0.016 | 0.568 ± 0.013 | highly significantly different from the model group (***P<0.001) | 
LSKLGGGGTSLDASIIWAMMQNGGGGSDKP [Polypeptide VI, Leu-Ser-Lys-Leu-linker-Thr-Ser-Leu-Asp-Ala-Ser-Ile-Ile-Trp-Ala-Met-Met-Gln-Asn-linker-Ser-Asp-Lys-Pro] | 70% | could inhibit the proliferation | 0.453 ± 0.021 | 0.502 ± 0.013 | 0.652 ± 0.018 | highly significantly different from the model group (**P<0.01) | could inhibit the proliferation | 0.340 ± 0.012 | 0.412 ± 0.005 | 0.622 ± 0.007 | highly significantly different from the model group (***P<0.001) | 
